Experimental findings from ChEMBL document CHEMBL1201862, “PubChem BioAssay data set” (2004) are described below.

Where “and” joins values, the source holds several entries; their conditions need not be identical. Equal entries are not always repeated.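 Method: 48-hour compound exposure of cells in 96-well plates, five concentrations, linear interpolation of endpoints. At the GI50, growth is halved.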 Calls of active or inactive are those of the source. Rule as the data show it: active = GI50 up to about 1.1 µM and inactive = higher. Where only a bound is given, the exact number is not on record here.

Test systems include SN12C; LOX IMVI; SK-MEL-2; SNB-75; OVCAR-5; M19-MEL; SNB-19; HCC 2998; U-251; SF-539; HL-60; NCI-H23; COLO 205; A498; SK-MEL-5; SR.
Holding throughout (assay): inhibition of tumour cell growth, NCI panel, 48 h

Consider `O=c1oc2ccccc2[n+]([O-])c1-c1ccccc1`, for which the GI50 is > 100 µM (inactive) in the experiment with SN12C; > 100 µM (inactive) in the experiment with LOX IMVI; > 100 µM (inactive) in the experiment on SK-MEL-2; 49.7 µM (inactive) with SNB-75; > 100 µM (inactive) in the experiment on OVCAR-5; > 100 µM (inactive) in the experiment on M19-MEL. Also, the GI50 with SNB-19, in the experiment on HCC 2998, in the experiment on U-251, in the experiment on SF-539, in the experiment with HL-60 and in the experiment with NCI-H23 was > 100 µM (inactive) each time. Moreover, the GI50 in the experiment on COLO 205, in the experiment with A498 and in the experiment with SK-MEL-5 was > 100 µM (inactive) in each case.

On to `Cc1cc(C)c(C(=O)C(C)C(c2ccccc2)c2ccc(Cl)cc2)c(C)c1` (configuration not stated), for which the GI50 in the experiment with SN12C was > 100 µM (inactive); in the experiment on SNB-75, > 100 µM (inactive); in the experiment on SR, 76.2 µM (inactive) and 64.6 µM (inactive); with M19-MEL, 43.9 µM (inactive) and 33.3 µM (inactive); in the experiment with U-251, > 100 µM (inactive); with SF-539 it was > 100 µM (inactive). For the same molecule, the GI50 was > 100 µM (inactive) and 60.7 µM (inactive) in the experiment on NCI-H23; > 100 µM (inactive) in the experiment on COLO 205; > 100 µM (inactive) with SK-MEL-5.

Take `NNC(=O)CC(=O)Nc1ccccc1F`: the GI50 in the experiment with SN12C, in the experiment on LOX IMVI, with SNB-75, in the experiment on OVCAR-5, in the experiment with M19-MEL and with SNB-19 was > 100 µM (inactive) in each case. Moreover, the GI50 with HCC 2998, in the experiment with U-251, in the experiment on SF-539, in the experiment on HL-60, in the experiment with NCI-H23 and in the experiment on COLO 205 was > 100 µM (inactive) throughout. Also, the GI50 in the experiment with A498 and with SK-MEL-5 was > 100 µM (inactive) each time.

Turning to `Cc1ccc(C(=O)O/N=C2/CCCC/C2=C\c2ccccc2)cc1`, the GI50 with SN12C is 80.9 µM (inactive); in the experiment with LOX IMVI it was 20.1 µM (inactive); with SK-MEL-2, > 100 µM (inactive); with SNB-75 it was 33.5 µM (inactive); in the experiment with OVCAR-5 it was 81.1 µM (inactive); with SR it was > 100 µM (inactive). Besides, the GI50 is 67.9 µM (inactive) with M19-MEL; > 100 µM (inactive) with SNB-19; > 100 µM (inactive) in the experiment with HCC 2998; 38.3 µM (inactive) in the experiment on U-251; 45.1 µM (inactive) in the experiment on SF-539; 19.7 µM (inactive) in the experiment on HL-60. In addition, the GI50 is 29.4 µM (inactive) with NCI-H23, 95.3 µM (inactive) with COLO 205 and 37.2 µM (inactive) in the experiment with SK-MEL-5.

As to `CCN(CC)CCC(=O)N1CCc2c([nH]c3ccccc23)C1c1cccnc1` (configuration not stated), the GI50 in the experiment with SN12C, in the experiment with LOX IMVI, in the experiment with SNB-75, in the experiment on OVCAR-5, with SR and in the experiment with M19-MEL was > 100 µM (inactive) each time. Also, the GI50 in the experiment with SNB-19, with HCC 2998, in the experiment with U-251, in the experiment on SF-539, in the experiment on HL-60 and in the experiment with NCI-H23 was > 100 µM (inactive) throughout. Besides, the GI50 in the experiment on A498 and in the experiment on SK-MEL-5 was > 100 µM (inactive) each time.

Take `C=C1C(=O)OC2C1C(OC(=O)/C(=C/C)COC(C)=O)CC1(CO1)C1C(OC(=O)/C(=C/C)CO)C=C(C)C21` (configuration not stated): the GI50 is 1.82 µM (inactive) in the experiment with SN12C; 3.19 µM (inactive) with LOX IMVI; 1.87 µM (inactive) with SK-MEL-2; 2.26 µM (inactive) with SNB-75; 12.2 µM (inactive) in the experiment with OVCAR-5; 1.79 µM (inactive) in the experiment with M19-MEL. Further, the GI50 in the experiment with SNB-19 is 3.36 µM (inactive); in the experiment with HCC 2998 it was 1.92 µM (inactive); in the experiment with U-251 it was 15.1 µM (inactive); in the experiment on SF-539, 5.81 µM (inactive); in the experiment with HL-60, 0.446 µM (active); in the experiment on NCI-H23, 1.63 µM (inactive). Moreover, the GI50 in the experiment on COLO 205 is 1.09 µM (active); with A498 it was 3.03 µM (inactive); in the experiment on SK-MEL-5, 2.29 µM (inactive).

With `Cc1cc(C)c([O-])c(-[n+]2c(-c3ccccc3)cc(-c3ccccc3)cc2-c2ccccc2)c1`, the GI50 is 5.09 µM (inactive) in the experiment on SN12C; 1.72 µM (inactive) with LOX IMVI; 2.88 µM (inactive) with SK-MEL-2; 6.18 µM (inactive) with SNB-75; 4.49 µM (inactive) with OVCAR-5; 2.6 µM (inactive) with SR. The GI50 with M19-MEL was 3.88 µM (inactive); in the experiment with SNB-19, 8.89 µM (inactive); in the experiment with HCC 2998, 3.51 µM (inactive); in the experiment with U-251 it was 3.38 µM (inactive); in the experiment on SF-539, 11.2 µM (inactive); in the experiment on HL-60, 1.62 µM (inactive). Also, the GI50 in the experiment on NCI-H23 was 3.53 µM (inactive); in the experiment with COLO 205, 3.22 µM (inactive); in the experiment on SK-MEL-5, 1.94 µM (inactive).

With `CC(C)C(=O)/C=C/c1ccc(Cl)c(Cl)c1`, the GI50 in the experiment on SN12C was 15 µM (inactive); with SK-MEL-2, 17.5 µM (inactive); with SNB-75 it was > 10 µM (inactive); in the experiment with OVCAR-5, 21.7 µM (inactive); in the experiment on SR it was 14.5 µM (inactive); in the experiment on M19-MEL it was 17.7 µM (inactive). Besides, the GI50 in the experiment on SNB-19 is 15.1 µM (inactive); in the experiment with HCC 2998 it was 18.8 µM (inactive); in the experiment with U-251, 17 µM (inactive); in the experiment on SF-539, 13.2 µM (inactive); in the experiment on HL-60, 15 µM (inactive); in the experiment on NCI-H23, 18.3 µM (inactive). Further, the figures for the GI50 in the experiment on COLO 205, in the experiment on A498 and with SK-MEL-5 were 24.9 µM (inactive), 24.8 µM (inactive) and 14.8 µM (inactive), respectively.

With `O=C(CC(=O)n1nc(-c2ccccc2)c(/N=N/c2ccc([N+](=O)[O-])cc2)c1-c1ccccc1)Nc1ccc(Cl)cc1`, the GI50 in the experiment with SN12C was 42.1 µM (inactive); with LOX IMVI, 30.2 µM (inactive); with SK-MEL-2, 34.8 µM (inactive); in the experiment on SNB-75, 29 µM (inactive); with OVCAR-5, 26.5 µM (inactive); with SR, 22.4 µM (inactive). Further, the GI50 was 35.6 µM (inactive) in the experiment with M19-MEL; 26.4 µM (inactive) with SNB-19; 20.8 µM (inactive) with HCC 2998; 18.9 µM (inactive) in the experiment on U-251; 21.5 µM (inactive) in the experiment with SF-539; 17 µM (inactive) in the experiment on HL-60. Further, the GI50 with NCI-H23 is 27.2 µM (inactive); in the experiment with COLO 205, 18 µM (inactive); in the experiment with SK-MEL-5, 3.23 µM (inactive).

In the case of `Cc1c2cc[n+](C)cc2c(C)c2c1[nH]c1ccc(O)c(OCC(F)(F)F)c12`, the GI50 in the experiment with SN12C was 0.34 µM (active); in the experiment on LOX IMVI, 13 µM (inactive); with SK-MEL-2, 4.63 µM (inactive); in the experiment on SNB-75, 0.188 µM (active); with OVCAR-5, 7.11 µM (inactive); in the experiment with M19-MEL, 2.42 µM (inactive). Further, the GI50 was 0.218 µM (active) in the experiment with SNB-19; 4.55 µM (inactive) with HCC 2998; 0.301 µM (active) with U-251; 2.04 µM (inactive) in the experiment on SF-539; 2.5 µM (inactive) with HL-60; 0.984 µM (active) in the experiment with NCI-H23. Further, the GI50 with COLO 205 is 1.77 µM (inactive); in the experiment on A498 it was 10.8 µM (inactive); in the experiment on SK-MEL-5, 1.51 µM (inactive).

Consider `CC(SC(=S)N1CCOCC1)c1cc2oc(=O)n(C)c2cc1Cl` (configuration not stated), for which the GI50 in the experiment with SN12C was > 100 µM (inactive); in the experiment with LOX IMVI, 40.9 µM (inactive); with SK-MEL-2 it was > 100 µM (inactive); in the experiment on SNB-75, 76 µM (inactive); with OVCAR-5, > 100 µM (inactive); in the experiment with SR it was 30.4 µM (inactive). Moreover, the GI50 is > 100 µM (inactive) with M19-MEL; > 100 µM (inactive) with SNB-19; > 100 µM (inactive) with HCC 2998; > 100 µM (inactive) in the experiment with U-251; 76 µM (inactive) in the experiment on SF-539; 39.4 µM (inactive) in the experiment with HL-60. The values for the GI50 in the experiment on NCI-H23, in the experiment with COLO 205 and in the experiment with SK-MEL-5 were > 100 µM (inactive), > 100 µM (inactive) and 62.7 µM (inactive), respectively.

With `CN(C)C=C1C(=O)N(C)C(=O)N(C)C1=O`, the GI50 in the experiment on SN12C, with LOX IMVI, with SK-MEL-2, in the experiment on SNB-75, with OVCAR-5 and in the experiment on SR was > 100 µM (inactive) throughout. Further, the GI50 with M19-MEL, with SNB-19, in the experiment on HCC 2998, with U-251, in the experiment with SF-539 and in the experiment on HL-60 was > 100 µM (inactive) in each case. Besides, the GI50 in the experiment with NCI-H23, in the experiment with A498 and with SK-MEL-5 was > 100 µM (inactive) in each case.

`O=C(Cc1ccc(F)cc1)NC1=C(Cl)C(=O)c2ccccc2C1=O`: the GI50 in the experiment on SN12C is 3.38 µM (inactive); with LOX IMVI, 2.95 µM (inactive); in the experiment with SK-MEL-2, 2.43 µM (inactive); in the experiment with SNB-75, 2.5 µM (inactive); in the experiment on OVCAR-5 it was 3.85 µM (inactive); in the experiment with SR, 0.481 µM (active). In addition, the GI50 in the experiment with M19-MEL was 3.74 µM (inactive); in the experiment on SNB-19 it was 5.58 µM (inactive); with HCC 2998, 4.22 µM (inactive); in the experiment with U-251, 3.07 µM (inactive); with SF-539, 2.24 µM (inactive); with HL-60, 0.0916 µM (active). The GI50 in the experiment with NCI-H23 was 1.67 µM (inactive); in the experiment on COLO 205, 3.66 µM (inactive); with SK-MEL-5, 2.92 µM (inactive).

For the molecule `CCOC(=O)c1ccc(/N=C/c2ccc(N(CCC#N)S(=O)(=O)c3ccccc3)cc2C)cc1`, the GI50 with SN12C was 75.7 µM (inactive); in the experiment with LOX IMVI it was 22.8 µM (inactive); in the experiment with SK-MEL-2, 33.5 µM (inactive); with SNB-75 it was 32.4 µM (inactive); with OVCAR-5 it was 31.8 µM (inactive); in the experiment on M19-MEL it was 36.6 µM (inactive). In addition, the GI50 with SNB-19 is > 100 µM (inactive); in the experiment with HCC 2998 it was 28.7 µM (inactive); with U-251, 97.1 µM (inactive); in the experiment with SF-539 it was 41.9 µM (inactive); with HL-60, 19.4 µM (inactive); in the experiment with NCI-H23, > 100 µM (inactive). For the same molecule, the GI50 with COLO 205 is 20.4 µM (inactive); in the experiment on A498, > 100 µM (inactive); with SK-MEL-5, 80.7 µM (inactive).
